Measurements from patent EP0795549A1, “Bis-aryloxy(amino)-triazinyl-oxy(amino)aryl derivatives, their preparation and their use as antiviral agents” (American Cyanamid Company, priority 1996, dated 1997).
Structures can show the parent of a compound that is named as a salt. Where two headings read alike, the source gives them in different places.

Key:
[1] = tested on: CMV (Ad169); test: viral yield reduction (growth inhibition) assay, CMV; format: cell-based, Cytomegalovirus; conditions: for Antiviral IC50 µg/ml CMV /HF: Table 1a; for IC50 µG/mL IN GROWTH […]/ HF: HF host cells
Method: (§1) The compounds were tested for biological activity using viral yield reduction assays. Host cells (indicated as HF for human foreskin fibroblasts and as vero, the commonly used African green monkey cell line, in Tables 1 and 1a) were plated at 4 x 10^4 cells/well in cell growth medium with 2% fetal bovine serum or 2% calf serum in 96-well plates (0.1 ml/well) and incubated overnight. The compounds were added to individual wells to give final concentrations ranging from 50 to 0.1 µg/ml in two-fold concentration steps. After 1 hour, virus was added, and the incubation was continued for 4 days with RSV or CMV and for 2 days with HSV. At the end of the experiment, the amount of virus growth was quantitated and the yield reduction at various concentrations of compound was calculated. This allows estimation of the concentration of compound giving 50% reduction in virus growth (IC50).

[2] = tested on: RSV (A2); test: viral yield reduction (growth inhibition) assay, RSV; format: cell-based, Respiratory Syncitial Virus; conditions: for IC50: human respiratory syncytial virus
Method: as §1

[3] = tested on: HSV1 (Patton); test: viral yield reduction (growth inhibition) assay, HSV; format: cell-based, Herpes Simplex Virus; conditions: for Antiviral IC50 µg/ml HSV Vero: Table 1a, format not given; for IC50 µG/mL IN GROWTH […]/ HF: HF host cells
Method: as §1

[4] = tested on: CMV (Ad169); test: viral plaque reduction assay, CMV; format: cell-based, Cytomegalovirus; conditions: CMV (Ad169), HF host cells; for IC50: Human betaherpesvirus 5, read-out: IC50µG/mL IN PLAQUE ASSAY CMV/ HF
[5] = tested on: RSV; test: viral plaque reduction assay, RSV; format: cell-based, Respiratory Syncitial Virus; conditions: RSV (A2), vero host cells
[6] = tested on: RSV A2; format: in vivo, cotton rats; conditions: rat, in vivo
[7] = Table 1a, HF, yield reduction or plaque format not specified
[8] = Human betaherpesvirus 5, HF host cells, read-out: IC50 µG/mL IN GROWTH […]/ HF
[9] = HF host cells, read-out: IC50 µG/mL IN GROWTH […]/ HF
[10] = vero host cells, read-out: IC50 µG/mL IN GROWTH […]/ VERO

4',4-Bis-{4,6-bis-[3-(bis-carbamoylmethyl-1-sulfamoyl)-phenylamino]-[1,3,5]triazin-2-ylamino}-biphenyl-2,2'-dicarboxylic acid, disodium salt [Example 44]
Antiviral IC50 µg/ml CMV /HF ([1]; HF, format not given): 1.5 µg/mL | Antiviral IC50 µg/ml RSV/ HF [2, 7]: 0.6 µg/mL | Antiviral IC50 µg/ml HSV Vero ([3]; HSV1 (Patton)): 15 µg/mL

4,4'-Bis[4,6-di[3-aminophenyl-N,N-bis(2-carbamoyl-ethyl)sulfonylimino]-1,3,5-triazin-2-ylamino]-bibenzyl-2,2'-disulfonic acid, disodium salt [Example 11]
IC50 µG/mL IN GROWTH […]/ HF [1]: > 50 µg/mL | IC50 µG/mL IN GROWTH […]/ HF ([2]; HF host cells): 10 µg/mL | IC50 µG/mL IN GROWTH […]/ VERO ([2]; vero host cells): 10 µg/mL

4,4'-Bis[4,6-di[3-aminophenyl-N,N-bis(2-carbamoyl-ethyl)sulfonylimino]-1,3,5-triazin-2-yloxy]-biphenyl-2,2'-disulfonic acid, disodium salt [Example 19]
IC50 µG/mL IN GROWTH […]/ HF [1]: 12 µg/mL | IC50 µG/mL IN GROWTH […]/ HF ([2]; HF host cells): 2 µg/mL | IC50 µG/mL IN GROWTH […]/ VERO ([2]; vero host cells): 3 µg/mL | IC50 µG/mL IN GROWTH […]/ HF ([3]; HSV1 (Patton)): 30 µg/mL | IC50 µG/mL IN GROWTH […]/ VERO ([3]; HSV1 (Patton), vero host cells): ~50 µg/mL

4,4'-Bis[4,6-di[3-aminophenyl-N,N-bis(2-hydroxyethyl)sulfonyliminol-1,3,5-triazin-2-ylamino]-biphenyl-2,2'-disulfonic acid, disodium salt [Example 22]
IC50µG/mL IN PLAQUE ASSAY CMV/ HF [4]: 2 µg/mL | IC50 µG/mL IN GROWTH […]/ HF [1]: 4 µg/mL | IC50 µG/mL IN GROWTH […]/ HF ([2]; HF host cells): 0.15 µg/mL | IC50 µG/mL IN GROWTH […]/ VERO ([2]; vero host cells): 0.25 µg/mL

4,4'-Bis[4,6-di[3-aminophenyl-N,N-bis(3-hydroxypropyl)-sulfonylimino]-1,3,5-triazin-2-ylamino]-biphenyl-2,2'-disulfonic acid, disodium salt [Example 59]
Antiviral IC50 µg/ml CMV /HF ([1]; HF, format not given): 4 µg/mL | Antiviral IC50 µg/ml RSV/ HF [2, 7]: 0.5 µg/mL | Antiviral IC50 µg/ml HSV Vero ([3]; HSV1 (Patton)): 20 µg/mL

4,4'-Bis[4,6-di[4-amino-N'-[3-aminophenyl-N,N-bis(2-hydroxyethyl)sulfonylimino]-benzensulfonamide]-1,3,5-triazin-2-ylamino]-stilbene-2,2'-disulfonic acid, disodium salt [Example 25]
IC50 µG/mL IN GROWTH […]/ VERO ([2]; vero host cells): 30 µg/mL

4,4'-Bis[4,6-di[4-aminophenyl-N,N-bis(2-carbamoyl-ethyl)sulfonylimino]-1,3,5-triazin-2-ylamino]-biphenyl-2,2'-disulfonic acid, disodium salt [Example 13]
IC50 µG/mL IN GROWTH […]/ HF [1]: 20 µg/mL | IC50 µG/mL IN GROWTH […]/ HF ([2]; HF host cells): 8 µg/mL | IC50 µG/mL IN GROWTH […]/ VERO ([2]; vero host cells): 8 µg/mL | IC50 µG/mL IN GROWTH […]/ HF ([3]; HSV1 (Patton)): 10 µg/mL | IC50 µG/mL IN GROWTH […]/ VERO ([3]; HSV1 (Patton), vero host cells): 30 µg/mL

4,4'-Bis[4,6-di[4-aminophenyl-N,N-bis(2-carbamoyl-ethyl)sulfonylimino]-1,3,5-triazin-2-ylamino]-stilbene-2,2'-disulfonic acid, disodium salt [Example 12]
IC50µG/mL IN PLAQUE ASSAY RSV/ VERO [5]: 8 µg/mL | IC50µG/mL IN PLAQUE ASSAY CMV/ HF [4]: 10 µg/mL

4,4'-Bis[4-chloro-6-[3-aminophenyl-N,N-bis(2-carbamoylethyl)sulfonylimino]-1,3,5-triazin-2-ylamino]-stilbene-2,2'-disulphonic acid, disodium salt [Example 8]
IC50 µG/mL IN GROWTH […]/ HF [1]: > 50 µg/mL | IC50 µG/mL IN GROWTH […]/ HF ([2]; HF host cells): > 50 µg/mL | IC50 µG/mL IN GROWTH […]/ VERO ([2]; vero host cells): > 50 µg/mL

4,4'-Bis[4-chloro-6-di[4-amino-N'-[3-aminophenyl-N,N-bis(2-carbamoylethyl)sulfonylimino]-benzamide]-1,3,5-triazin-2-ylamino]-stilbene-2,2' -disulfonic acid, disodium salt [Example 24]
IC50 µG/mL IN GROWTH […]/ VERO ([2]; vero host cells): 50 µg/mL

4-[4,6-Di[3-aminophenyl-N,N-bis(2-carbamoylethyl)sulfonylimino]-1,3,5-triazin-2-ylamino]-4'-[4-[3-aminophenyl-N,N-bis(2-carbamoylethyl)sulfonylimino]-6-[3 -aminophenyl-N,N bis(3-propionic acid)]-1,3,5-triazin-2-ylamino]-stilbene-2,2'-disulphonic acid, disodium salt [Example 10]
IC50 µG/mL IN GROWTH […]/ HF ([2]; HF host cells): < 3 µg/mL | IC50 µG/mL IN GROWTH […]/ VERO ([2]; vero host cells): 0.7 µg/mL

4-[4,6-Di[3-aminophenyl-N,N-bis(2-carbamoylethyl)sulfonylimino]-1,3,5-triazin-2-ylamino]-4'-[4-[3-aminophenyl-N,N-bis(2-carbamoylethyl)sulfonylimino]-6-[3 -aminophenyl-N-(2-carbamoylethyl)-N'-(3-propionic acid)]-1,3,5-triazin-2-ylamino]stilbene-2,2'-disulphonic acid, disodium salt [Example 9]
IC50µG/mL IN PLAQUE ASSAY RSV/ VERO [5]: 0.3 µg/mL | IC50µG/mL IN PLAQUE ASSAY CMV/ HF [4]: 10 µg/mL | IC50 µG/mL IN GROWTH […]/ HF ([2]; HF host cells): < 3 µg/mL | IC50 µG/mL IN GROWTH […]/ VERO ([2]; vero host cells): 0.4 µg/mL

4-[4,6-Di[3-aminophenyl-N,N-bis(2-carbamoylethyl)sulfonylimino]-1,3,5-triazin-2-ylamino]-4'-[4-chloro-6-[3-aminophenyl-N,N-bis(2-carbamoylethyl)sulfonylimino] -1,3,5-triazin-2-ylamino]-stilbene-2,2'-disulphonic acid, disodium salt [Example 7]
IC50µG/mL IN PLAQUE ASSAY RSV/ VERO [5]: 0.8 µg/mL | IC50µG/mL IN PLAQUE ASSAY CMV/ HF [4]: 10 µg/mL | IC50 µG/mL IN GROWTH […]/ HF ([2]; HF host cells): 0.7 µg/mL | IC50 µG/mL IN GROWTH […]/ VERO ([2]; vero host cells): 1 µg/mL

5,5'-Dimethyl-4,4'-bis[4,6-di[3-aminophenyl-N,N-bis(2-carbamoyl-ethyl)sulfonylimino]-1,3,5-triazin-2-ylamino]-biphenyl-2,2'-disulfonic acid, disodium salt [Example 20]
IC50 µG/mL IN GROWTH […]/ HF ([2]; HF host cells): 0.5 µg/mL | IC50 µG/mL IN GROWTH […]/ VERO ([3]; HSV1 (Patton), vero host cells): 40 µg/mL

9,9-Dioxo-2,7-Bis[4,6-di[3-aminophenyl-N,N-bis(2-carbamoylethyl)sulfonylimino]-1,3,5-triazin-2-ylamino]-dibenzothiophen-3,6-disulfonic acid, disodium salt [Example 23]
IC50µG/mL IN PLAQUE ASSAY RSV/ VERO [5]: 8 µg/mL | IC50µG/mL IN PLAQUE ASSAY CMV/ HF [4]: 20 µg/mL

NC(=O)CCN(CCC(N)=O)S(=O)(=O)c1cccc(Nc2nc(Cl)nc(Nc3cccc(S(=O)(=O)N(CCC(N)=O)CCC(N)=O)c3)n2)c1 [Example 6, 2-Chloro-4,6-di[3-aminophenyl-N,N-bis(2-carbamoyl-ethyl)sulfonylimino]-1,3,5-triazine]
IC50 [1, 8]: > 50 µg/mL | IC50 [2, 9]: > 50 µg/mL | IC50 [2, 10]: > 50 µg/mL

NS(=O)(=O)c1cccc(Nc2nc(Nc3cccc(S(N)(=O)=O)c3)nc(Nc3ccc(/C=C/c4ccc(Nc5nc(Nc6cccc(S(N)(=O)=O)c6)nc(Nc6cccc(S(N)(=O)=O)c6)n5)cc4S(=O)(=O)O)c(S(=O)(=O)O)c3)n2)c1 [Example 15, 4,4'-Bis[4,6-di[3-aminophenylsulphonylamido]-1,3,5-triazin-2-ylamino]-stilbene-2,2'-disulfonic acid, disodium salt]
IC50 [4]: 1 µg/mL | IC50 [1, 8]: 2 µg/mL | IC50 [2, 9]: 7 µg/mL | IC50 [2, 10]: > 8.3 µg/mL

NS(=O)(=O)c1cccc(Nc2nc(Nc3cccc(S(N)(=O)=O)c3)nc(Nc3ccc(-c4ccc(Nc5nc(Nc6cccc(S(N)(=O)=O)c6)nc(Nc6cccc(S(N)(=O)=O)c6)n5)cc4S(=O)(=O)O)c(S(=O)(=O)O)c3)n2)c1 [Example 16, 4,4'-Bis[4,6-di[3-aminophenylsylphonylimido]-1,3,5-triazin-2-ylamino]-biphenyl-2,2'-disulfonic acid, disodium salt]
IC50 [4]: 3 µg/mL | IC50 [1, 8]: 3 µg/mL | IC50 [2, 9]: 5 µg/mL | IC50 [2, 10]: ~8.3 µg/mL

O=S(=O)(O)c1cc(O)ccc1-c1ccc(O)cc1S(=O)(=O)O [Example 17, 4,4'-Dihydroxybiphenyl-2,2'-disulfonic acid]
IC50 [2, 9]: > 50 µg/mL | IC50 [2, 10]: > 50 µg/mL | IC50 ([3]; Human alphaherpesvirus 1, HSV1 (Patton), vero host cells, read-out: IC50 µG/mL IN GROWTH INHIBITION HSV/ VERO): > 50 µg/mL

CC(O)CN(CC(C)O)S(=O)(=O)c1cccc(Nc2nc(Nc3cccc(S(=O)(=O)N(CC(C)O)CC(C)O)c3)nc(Nc3ccc(-c4ccc(Nc5nc(Nc6cccc(S(=O)(=O)N(CC(C)O)CC(C)O)c6)nc(Nc6cccc(S(=O)(=O)N(CC(C)O)CC(C)O)c6)n5)cc4C(=O)[O-])c(C(=O)[O-])c3)n2)c1.[Na+].[Na+] (stereo not drawn) [Example 41, 4,4'-Bis-(4,6-bis-{3-[bis-(2-hydroxy-propyl)-sulfamoyl]-phenylamino}-[1,3,5]triazin-2-ylamino)biphenyl-2,2'-dicarboxylic acid, disodium salt]
IC50 ([1]; Human betaherpesvirus 5, Table 1a, HF, format not given, read-out: Antiviral IC50 µg/ml CMV /HF): 8 µg/mL | IC50 ([2]; Table 1a, HF, yield reduction or plaque format not specified, read-out: Antiviral IC50 µg/ml RSV/ HF): 2 µg/mL | IC50 ([3]; Human alphaherpesvirus 1, Vero, read-out: Antiviral IC50 µg/ml HSV Vero): > 50 µg/mL

NC(=O)c1ncn([C@@H]2O[C@H](CO)[C@@H](O)[C@H]2O)n1 [Ribavirin, ribavirin, reference compound]
Fold red. log10 [6]: 0.8 log10 | Mean titer log10/g lung [6]: 3.3 log10/g lung
